Measurements taken from patent US10173991B2, “Sulfone amide linked benzothiazole inhibitors of endothelial lipase” (BRISTOL-MYERS SQUIBB COMPANY, priority 2014, dated 2019).
Read-outs that look alike come from different tables or passages of the source.

Target: Endothelial lipase (EL) (Homo sapiens (Human), UniProt Q9Y5X9)
Assay: Endothelial lipase (EL) enzymatic assay with fluorescent substrate A10070 in DMPG vesicles
Type: biochemical
How it was run: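 EL from conditioned medium of HT-1080 cells engineered to overexpress endogenous EL; HL partially purified from conditioned medium of HL-overexpressing COS cells. Enzyme preincubated with compound 30 min at 37° C in 50 mM HEPES pH 8.0, 50 mM NaCl, 1 mM CaCl2; DMPG vesicles carrying FRET substrate (0.11 mole fraction) then added.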

[1] = EL from conditioned media of HT-1080 cells, 30 min preincubation at 37° C.

Chain of Endothelial lipase (EL) (Q9Y5X9 21-500): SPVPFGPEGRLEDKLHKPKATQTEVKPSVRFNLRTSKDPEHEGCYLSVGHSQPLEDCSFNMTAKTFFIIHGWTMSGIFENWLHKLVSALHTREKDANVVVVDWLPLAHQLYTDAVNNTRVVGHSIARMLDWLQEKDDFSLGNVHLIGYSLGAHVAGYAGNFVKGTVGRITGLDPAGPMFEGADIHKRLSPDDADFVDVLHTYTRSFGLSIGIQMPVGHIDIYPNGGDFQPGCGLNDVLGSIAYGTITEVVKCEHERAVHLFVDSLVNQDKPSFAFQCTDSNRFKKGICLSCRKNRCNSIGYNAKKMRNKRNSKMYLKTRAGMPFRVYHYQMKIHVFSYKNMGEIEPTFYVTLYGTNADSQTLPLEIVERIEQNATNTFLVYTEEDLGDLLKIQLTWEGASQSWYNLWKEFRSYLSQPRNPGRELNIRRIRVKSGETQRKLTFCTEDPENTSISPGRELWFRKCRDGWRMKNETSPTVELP

Row | Structure (SMILES) | IC50 [nM] | IC50 [1] [nM]
1 | COCCNC(=O)CNC(=O)C(c1nc2cc(-c3ccc(F)nc3)ccc2s1)S(=O)(=O)CCOC (stereo not shown) [Example 390, 2-[5-(6-fluoropyridin-3-yl)-1,3-benzothiazol-2-yl]-2-(2-methoxyethane-sulfonyl)-N-{[(2-methoxyethyl)carbamoyl]methyl} acetamide] | 102 | 
2 | CC(C)S(=O)(=O)C(C(=O)NCC(=O)NC1CC1)c1nc2cc(-c3ccc(C#N)cc3)c(F)cc2s1 (stereo not shown) [Example 275, 2-[5-(4-cyanophenyl)-6-fluoro-1,3-benzothiazol-2-yl]-N-[(cyclopropyl-carbamoyl)methyl]-2-(propane-2-sulfonyl)acetamide] | 40 | 
3 | COCCS(=O)(=O)C(C(=O)NCC(=O)NC1CC1)c1nc2cc(-c3ccc(COC)cc3)ccc2s1 (stereo not shown) [Example 338, N-[(cyclopropyl-carbamoyl)methyl]-2-(2-methoxyethane-sulfonyl)-2-{5-[4-(methoxymethyl)phenyl]-1,3-benzothiazol-2-yl}acetamide] | 42 | 
4 | CN(C)S(=O)(=O)C(C(=O)NCC(=O)NC1CC1)c1nc2cc(F)c(-c3cccc(-n4cccn4)c3)cc2s1 (stereo not shown) [Example 506, N-[(cyclopropyl-carbamoyl)methyl]-2-(dimethyl-sulfamoyl)-2-{5-fluoro-6-[3-(1H-pyrazol-1-yl)phenyl]-1,3-benzothiazol-2-yl} acetamide] | 52 | 
5 | COC(=O)Nc1cccc(-c2cc3sc(C(C(=O)NCC(=O)NC4CC4)S(C)(=O)=O)nc3cc2F)c1 (stereo not shown) [Example 117, methyl N-{3-[2-({[(cyclopropyl-carbamoyl)methyl]carbamoyl} (methanesulfonyl)methyl)-5-fluoro-1,3-benzothiazol-6-yl]phenyl} carbamate] | 4 | 
6 | CN(C)S(=O)(=O)C(C(=O)NCC(=O)NC1CC1)c1nc2c(F)cc(-c3cnc(-c4ccccc4)nc3)cc2s1 (stereo not shown) [Example 500, N-[(cyclopropyl-carbamoyl)methyl]-2-(dimethyl-sulfamoyl)-2-[4-fluoro-6-(2-phenylpyrimidin-5-yl)-1,3-benzothiazol-2-yl]acetamide] | 8 | 
7 | Cc1nc2cc(-c3cc4sc(C(C(=O)NCC(=O)NC5CC5)S(=O)(=O)C(C)C)nc4cc3F)ccc2s1 (stereo not shown) [Example 238, N-[(cyclopropyl-carbamoyl)methyl]-2-[5-fluoro-6-(2-methyl-1,3-benzothiazol-5-yl)-1,3-benzothiazol-2-yl]-2-(propane-2-sulfonyl)acetamide] | 5 | 
8 | CCOc1ccc(-c2ccc3sc(C(C(=O)NCC(=O)NC4CC4)S(=O)(=O)CCOC)nc3c2)cn1 (stereo not shown) [Example 69, N-[(cyclopropyl-carbamoyl)methyl]-2-[5-(6-ethoxypyridin-3-yl)-1,3-benzothiazol-2-yl]-2-(2-methoxyethane-sulfonyl) acetamide] | 23 | 
9 | COCCS(=O)(=O)C(C(=O)NCC(=O)NC1CC1)c1nc2cc(-c3ccnc(C(F)(F)F)c3)ccc2s1 (stereo not shown) [Example 63, N-[(cyclopropyl-carbamoyl)methyl]-2-(2-methoxyethane-sulfonyl)-2-{5-[2-(trifluoromethyl)pyridin-4-yl]-1,3-benzothiazol-2-yl}acetamide] | 5 | 
10 | COCCS(=O)(=O)C(C(=O)NCC(=O)NC1(c2ncon2)CC1)c1nc2ccc(-c3ccc(F)nc3)cc2s1 (stereo not shown) [Example 391, 2-[6-(6-fluoropyridin-3-yl)-1,3-benzothiazol-2-yl]-2-(2-methoxyethane-sulfonyl)-N-({[1-(1,2,4-oxadiazol-3-yl)cyclopropyl]carbamoyl}methyl) acetamide] | 68 | 
11 | COCCS(=O)(=O)C(C(=O)NCC(=O)NC1CC1)c1nc2cc(F)c(-c3ccc(NC(=O)OCc4ccccn4)cc3)cc2s1 (stereo not shown) [Example 519, pyridin-2-ylmethyl N-{4-[2-({[(cyclopropyl-carbamoyl)methyl]carbamoyl}(2-methoxyethane-sulfonyl)methyl)-5-fluoro-1,3-benzothiazol-6-yl]phenyl}carbamate] | 2 | 
12 | COCCS(=O)(=O)C(C(=O)NCC(=O)NC1CC1)c1nc2cc(F)c(-c3ccc(C(=O)N4CC(C)(O)C4)cc3)cc2s1 (stereo not shown) [Example 565, N-[(cyclopropyl-carbamoyl)methyl]-2-{5-fluoro-6-[4-(3-hydroxy-3-methylazetidine-1-carbonyl)phenyl]-1,3-benzothiazol-2-yl}-2-(2-methoxyethane-sulfonyl)acetamide] | 3 | 
13 | COCCS(=O)(=O)C(C(=O)NCC(=O)NC1CC1)c1nc2cc(F)c(-c3ccc(-n4cccn4)cc3)cc2s1 (stereo not shown) [Example 139, N-[(cyclopropyl-carbamoyl)methyl]-2-{5-fluoro-6-[4-(1H-pyrazol-1-yl)phenyl]-1,3-benzothiazol-2-yl}-2-(2-methoxyethane-sulfonyl) acetamide] | 2 | 
14 | Cc1ncc(-c2cc3sc(C(C(=O)NCC(=O)NC4CC4)S(C)(=O)=O)nc3cc2OC(F)F)cn1 (stereo not shown) [Example 601, N-[(Cyclopropylcarbamoyl)methyl]-2-[5-(difluoromethoxy)-6-(2-methylpyrimidin-5-yl)-1,3-benzothiazol-2-yl]-2-methanesulfonylacetamide] |  | 19
15 | CN(C)S(=O)(=O)C(C(=O)NCC(=O)NC1CC1)c1nc2cc(F)c(-c3ccc(-c4ccccn4)cc3)cc2s1 (stereo not shown) [Example 508, N-[(cyclopropyl-carbamoyl)methyl]-2-(dimethyl-sulfamoyl)-2-{5-fluoro-6-[4-(pyridin-2-yl)phenyl]-1,3-benzothiazol-2-yl}acetamide] | 15 | 
16 | CC(C)n1cc(-c2cc3sc(C(C(=O)NCC(=O)NC4CC4)S(C)(=O)=O)nc3cc2F)ccc1=O (stereo not shown) [Example 195, N-[(cyclopropyl-carbamoyl)methyl]-2-{5-fluoro-6-[6-oxo-1-(propan-2-yl)-1,6-dihydropyridin-3-yl]-1,3-benzothiazol-2-yl}-2-methanesulfonyl-acetamide] | 23 | 
17 | COCCS(=O)(=O)C(C(=O)NCC(=O)NC1CC1)c1nc2cc(F)c(-c3ccc(-n4ccnc4)cc3)cc2s1 (stereo not shown) [Example 581, N-[(cyclopropyl-carbamoyl)methyl]-2-{5-fluoro-6-[4-(1H-imidazol-1-yl)phenyl]-1,3-benzothiazol-2-yl}-2-(2-methoxyethane-sulfonyl)acetamide] | 36 | 
18 | Cc1ncc(-c2cc(C)c3nc(C(C(=O)NCC(=O)NC4CC4)S(=O)(=O)c4ccc(F)cc4)sc3c2)cn1 (stereo not shown) [Example 469, N-[(cyclopropyl-carbamoyl)methyl]-2-(4-fluorobenzene-sulfonyl)-2-[4-methyl-6-(2-methylpyrimidin-5-yl)-1,3-benzothiazol-2-yl]acetamide] | 41 | 
19 | Cc1ncc(-c2cc(F)c3nc(C(C(=O)NCC(=O)NC4CC4)S(=O)(=O)c4ccc(F)cc4)sc3c2)cn1 (stereo not shown) [Example 471, N-[(cyclopropyl-carbamoyl)methyl]-2-[4-fluoro-6-(2-methylpyrimidin-5-yl)-1,3-benzothiazol-2-yl]-2-(4-fluorobenzene-sulfonyl)acetamide] | 23 | 
20 | COCCS(=O)(=O)C(C(=O)NCC(=O)NC1CC1)c1nc2ccc(-c3ccc(C(=O)NCC(C)(C)COC)cc3)cc2s1 (stereo not shown) [Example 559, 4-(2-(2-((2-(Cyclopropylamino)-2-oxoethyl)amino)-1-((2-methoxyethyl)sulfonyl)-2-oxoethyl)benzo[d]thiazol-6-yl)-N-(3-methoxy-2,2-dimethylpropyl)benzamide] |  | 5.5
21 | O=C(CNC(=O)C(c1nc2ccc(-c3cncnc3)cc2s1)S(=O)(=O)c1ccc(F)cc1)NC1CC1 (stereo not shown) [Example 460, N-[(cyclopropyl-carbamoyl)methyl]-2-(4-fluorobenzene-sulfonyl)-2-[6-(pyrimidin-5-yl)-1,3-benzothiazol-2-yl]acetamide] | 47 | 
22 | COCCS(=O)(=O)C(C(=O)NCC(=O)NC1CC1)c1nc2cc(-c3ccc(CNC(C)=O)cc3)ccc2s1 (stereo not shown) [Example 332, N-[(cyclopropyl-carbamoyl)methyl]-2-{5-[4-(acetamidomethyl)phenyl]-1,3-benzothiazol-2-yl}-2-(2-methoxyethane-sulfonyl)acetamide] | 10 | 
23 | CC(C)S(=O)(=O)C(C(=O)NCC(=O)NC1CC1)c1nc2cc(F)c(-c3ccc4c(c3)C(=O)NC4)cc2s1 (stereo not shown) [Example 239, N-[(cyclopropyl-carbamoyl)methyl]-2-[5-fluoro-6-(3-oxo-2,3-dihydro-1H-isoindol-5-yl)-1,3-benzothiazol-2-yl]-2-(propane-2-sulfonyl)acetamide] | 16 | 
24 | CS(=O)(=O)C(C(=O)NCC(=O)NC1CC1)c1nc2cc(F)c(-c3cnc(C4CC4)nc3)cc2s1 (stereo not shown) [Example 192, N-[(cyclopropyl-carbamoyl)methyl]-2-[6-(2-cyclopropyl-pyrimidin-5-yl)-5-fluoro-1,3-benzothiazol-2-yl]-2-methanesulfonyl-acetamide] | 25 | 
25 | COCCS(=O)(=O)C(C(=O)NCC(=O)NC1CC1)c1nc2ccc(-c3ccc(C(=O)O)cc3)cc2s1 (stereo not shown) [Example 408, 4-[2-({[(cyclopropyl-carbamoyl)methyl]carbamoyl}(2-methoxyethane-sulfonyl)methyl)-1,3-benzothiazol-6-yl]benzoic acid] | 48 | 
26 | O=C(CNC(=O)C(c1nc2cc(F)c(-c3cncnc3)cc2s1)S(=O)(=O)c1ccccc1F)NC1CC1 (stereo not shown) [Example 441, N-[(cyclopropyl-carbamoyl)methyl]-2-[5-fluoro-6-(pyrimidin-5-yl)-1,3-benzothiazol-2-yl]-2-(2-fluorobenzene-sulfonyl)acetamide] | 87 | 
27 | O=C(CNC(=O)C(c1nc2cc(-c3ccc(F)nc3)ccc2s1)S(=O)(=O)CCC(F)(F)F)NC1CC1 (stereo not shown) [Example 12, N-[(cyclopropyl-carbamoyl)methyl]-2-[5-(6-fluoropyridin-3-yl)-1,3-benzothiazol-2-yl]-2-(3,3,3-trifluoropropane-sulfonyl) acetamide] | 7 | 
28 | O=C(CNC(=O)C(c1nc2ccc(-c3ccc(F)nc3)cc2s1)S(=O)(=O)Cc1ccccc1)NC1CC1 (stereo not shown) [Example 55, N-[(Cyclopropylcarbamoyl)methyl]-2-[6-(6-fluoropyridin-3-yl)-1,3-benzothiazol-2-yl]-2-phenylmethanesulfonylacetamide] |  | 26
